Experiments:
[1] = tested on: HLA-A*02:01 transgenic mouse; assay: In vivo adjuvant activity, CTL induction with vaccine a, IFNγ ELISPOT (Test 7); settings: for CTL counts responsive to Peptide SEQ ID No. 5: compound added to vaccine a versus no compound, Example 2 325 ng per body, Reference example 12 225 ng per body, twice, one week interval
Description: The in vivo adjuvant activity of the compound prepared in Example 2 and the compound prepared in Reference example 12 was evaluated in the following procedure. To vaccine a was added the compound prepared in Example 2 or the compound prepared in Reference example 12 to prepare each vaccine, and the vaccine was administered to a HLA-A*02:01 transgenic mouse, and the adjuvant activity of each vaccine was evaluated by the method of testing antigen-specific CTL induction.
Specifically, vaccine a prepared like Test 6 was injected to mice intradermally at the tail base area in an amount for administering 300 μg of Compound of formula 4 per body and 225 μg of Peptide SEQ ID NO. 3 per body. Or, in the step of preparing vaccine a, the compound prepared in Example 2 was added to the diluted peptide solution to prepare a vaccine, and the prepared vaccine was injected to mice intradermally at the tail base area in an amount for administering 300 μg of Compound of formula 4 per body, 225 μg of Peptide SEQ ID No. 3 per body, and 325 ng of the compound prepared in Example 2 per body. Or, in the step of preparing vaccine a, the compound prepared in Reference example 12 was added to the diluted peptide solution to prepare a vaccine, and the prepared vaccine was injected to mice intradermally at the tail base area in an amount for administering 300 μg of Compound of formula 4 per body, 225 μg of Peptide SEQ ID No. 3 per body, and 225 ng of the compound prepared in Reference example 12 per body. The administrations were done twice, which had one week interval. One week after the final administration, the mice were sacrificed with CO2 gas. Splenocytes were harvested from spleens removed from the mice. In particular, an ELISPOT plate was treated with an anti-mouse-IFNγ antibody on the day before preparation of the splenocyte samples. On the next day, the plate was blocked by treatment with an RPMI 1640 medium with 10% FBS. To the blocked ELISPOT plate, the prepared splenocyte samples were added at 6.25×10^4 cells/well. […] Stained spots were counted on ImmunoSpot Analyzer.

[2] = tested on: HLA-A*02:01 transgenic mouse; assay: Induction of antigen-specific effector memory CTL, flow cytometry (Test 14); assay type: in vivo; settings: twice; for induction of antigen peptide-specific effector memory CTL (CD8+ tetramer+ CD127+ CD62L-): 325 ng per body in vaccine b compared with the vaccine without compound
Description: The activity of a vaccine comprising the compounds prepared in Examples 2 and 3 for inducing effector memory CTL was evaluated through the cell surface antigen expression analysis of CTL by flow cytometry.
Specifically, vaccine a prepared like Test 6 was injected to a HLA-A*02:01 transgenic mouse intradermally at the tail base area in an amount for administering 300 μg of Compound of formula 4 per body and 225 μg of Peptide SEQ ID No. 3 per body. The administrations were done twice, which had one week interval. Or, a vaccine prepared by adding the compound prepared in Example 3 to vaccine a was injected to the mouse intradermally at the tail base area in an amount for administering 300 μg of Compound of formula 4 per body, 225 μg of Peptide SEQ ID No. 3 per body, and 32.5 ng of the compound prepared in Example 3 per body. The administrations were done twice, which had one week interval. Or, vaccine b prepared like Test 8 was injected to the mouse intradermally at the tail base area in an amount for administering 300 μg of Compound of formula 4 per body and 225 μg of Peptide SEQ ID No. 3 per body. Or a vaccine prepared by adding the compound prepared in Example 3 to vaccine b was injected to the mouse intradermally at the tail base area in an amount for administering 300 μg of Compound of formula 4 per body, 225 μg of Peptide SEQ ID No. 3 per body, and 325 ng of the compound prepared in Example 3 per body. Or a vaccine prepared by adding the compound prepared in Example 2 to vaccine b was injected to the mouse intradermally at the tail base area in an amount for administering 300 μg of Compound of formula 4 per body, 225 μg of Peptide SEQ ID No. 3 per body, and 325 ng of the compound prepared in Example 2 per body. […] 1, a PE-Cy7-labeled anti-CD127 antibody, and a PerCP-Cy5.5-labeled anti-CD62L antibody, and analyzed for peptide-specific effector memory CTLs with a flow cytometer. The ratio of CD8-positive tetramer-positive CD127-positive CD62L-negative fraction in the lymphocyte fraction was calculated as peptide-specific effector memory CTL.

| Structure (SMILES) | CTL counts responsive to Peptide SEQ ID No. 5 [1] | induction of peptide-specific effector memory CTL (CD8+ tetramer+ CD127+ CD62L-) ([2]; 32.5 ng per body in vaccine a compared with vaccine a) | induction of antigen peptide-specific effector memory CTL (CD8+ tetramer+ CD127+ CD62L-) [2] | increase of the CTL counts (Peptide SEQ ID No. 5) compared with Reference example 12 ([1]; Example 2 325 ng per body versus Reference example 12 225 ng per body, added to vaccine) |
| --- | --- | --- | --- | --- |
| CCCCOc1nc(N)c2[nH]c(=O)n(Cc3ccc(CNC)nc3)c2n1 [Reference example 12, reference compound] | more |  |  |  |
| CCCCOc1nc(N)c2[nH]c(=O)n(Cc3ccc(CN(C)CCOCCOCCOCCOCCO)cc3)c2n1 [Example 3, 6-amino-2-butoxy-9-{[4-(16-hydroxy-2-methyl-5,8,11,14-tetraoxa-2-azahexadecan-1-yl)phenyl]methyl}-7,9-dihydro-8H-purin-8-one] |  | high frequency | high frequency |  |
| CCCCOc1nc(N)c2[nH]c(=O)n(Cc3ccc(CN(C)CCOCCOCCOCCOCCO)nc3)c2n1 [Example 2, 6-amino-2-butoxy-9-{[6-(16-hydroxy-2-methyl-5,8,11,14-tetraoxa-2-azahexadecan-1-yl)pyridin-3-yl]methyl}-7,9-dihydro-8H-purin-8-one-trifluoroacetate] | more |  | high frequency | more |
